Read-outs that look alike come from different tables or passages of the source.
Biological target: T1, PD-1/PD-L1 interaction (PD-1-Ig / PD-L1-His) (Homo sapiens, UniProt Q9NZQ7)
T1 construct: hPDL1(18-239)-TVMV-His; TVMV protease site linker (C); made in house; host or cells: HEK293T
Experiment: PD-1/PD-L1 Homogenous Time-Resolved Fluorescence (HTRF) binding assay
Settings: PD-L1-His 10 nM, PD-1-Ig 20 nM, read-out: Range or IC50
Outline: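 HTRF detection used 1 nM europium-cryptate anti-Ig and 20 nM APC anti-His. Compounds first saw 10 nM PD-L1-His for 15 min, and 20 nM PD-1-Ig was then added for another 15 min. Buffer was dPBS plus 0.1% BSA and 0.05% Tween-20. All concentrations are final.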

T1 sequence (Q9NZQ7 with tags, fused parts or gaps): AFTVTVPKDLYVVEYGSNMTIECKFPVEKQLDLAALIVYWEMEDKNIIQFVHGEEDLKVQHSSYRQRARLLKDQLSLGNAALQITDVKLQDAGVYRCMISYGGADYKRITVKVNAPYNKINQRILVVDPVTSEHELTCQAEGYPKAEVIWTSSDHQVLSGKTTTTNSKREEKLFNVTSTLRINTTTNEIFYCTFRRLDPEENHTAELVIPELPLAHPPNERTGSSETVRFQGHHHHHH

SMILES	IC50 (IC50 range class) [nM]	IC50 (numeric IC50) [nM]
Cc1c(OCCCN2CCC(N(C)C)CC2)cccc1-c1cccc(OCCCN2CC[C@@H](O)C2)c1C [Example 2070, (R)-1-(3-((3′-(3-(4-(dimethylamino)piperidin-1-yl)propoxy)-2,2′-dimethyl-[1,1′-biphenyl]-3-yl)oxy)propyl)pyrrolidin-3-ol]	90.1 to 1000	–
Cc1c(OCCCN[C@@H](CO)Cc2ncn(C)c2Cl)cccc1-c1cccc(OCCCN2CC[C@@H](O)C2)c1C [Example 2071, (R)-1-(3-((3′-(3-(((R)-1-(5-chloro-1-methyl-1H-imidazol-4-yl)-3-hydroxypropan-2-yl)amino)propoxy)-2,2′-dimethyl-[1,1′-biphenyl]-3-yl)oxy)propyl)pyrrolidin-3-ol]	90.1 to 1000	–
Cc1c(OCCCN(CCO)Cc2ccccc2)cccc1-c1cccc(OCCCN2CC[C@@H](O)C2)c1C [Example 2072, (R)-1-(3-((3′-(3-(benzyl(2-hydroxyethyl)amino)propoxy)-2,2′-dimethyl-[1,1′-biphenyl]-3-yl)oxy)propyl)pyrrolidin-3-ol]	90.1 to 1000	–
Cc1c(OCCCN2CC[C@@H](O)C2)cccc1-c1cccc(OCCCN2CCC[C@@H](C(=O)O)C2)c1C [Example 2074, (R)-1-(3-((3′-(3-((R)-3-hydroxypyrrolidin-1-yl)propoxy)-2,2′-dimethyl-[1,1′-biphenyl]-3-yl)oxy)propyl)piperidine-3-carboxylic acid]	90.1 to 1000	–
Cc1c(OCCCN2CCC[C@H](C(=O)O)C2)cccc1-c1cccc(OCCCN2CCC[C@H](C(=O)O)C2)c1C [Example 2082, (3S,3′S)-1,1′-(((2,2′-dimethyl-[1,1′-biphenyl]-3,3′-diyl)bis(oxy))bis(propane-3,1-diyl))bis(piperidine-3-carboxylic acid)]	90.1 to 1000	–
Cc1c(OCCCN2CCN(CCO)CC2)cccc1-c1cccc(OCCCN2CCN(CCO)CC2)c1C [Example 2085, 2,2′-((((2,2′-dimethyl-[1,1′-biphenyl]-3,3′-diyl)bis(oxy))bis(propane-3,1-diyl))bis(piperazine-4,1-diyl))bis(ethan-1-ol)]	90.1 to 1000	–
Cc1c(OCCCN2CC(N(C)C)C2)cccc1-c1cccc(OCCCN2CC(N(C)C)C2)c1C [Example 2087, 1,1′-(((2,2′-dimethyl-[1,1′-biphenyl]-3,3′-diyl)bis(oxy))bis(propane-3,1-diyl))bis(N,N-dimethylazetidin-3-amine)]	90.1 to 1000	–
Cc1c(OCCCNCCc2ccncc2)cccc1-c1cccc(OCCCN[C@@H]2C[C@H](CO)[C@@H](O)[C@H]2O)c1C [Example 2089, (1R,2S,3R,5R)-3-((3-((2,2′-dimethyl-3′-(3-((2-(pyridin-4-yl)ethyl)amino)propoxy)-[1,1′-biphenyl]-3-yl)oxy)propyl)amino)-5-(hydroxymethyl)cyclopentane-1,2-diol]	–	7.1
Cc1c(OCCCN(C)C2CC(O)C2)cccc1-c1cccc(OCCCN(C)C2CC(O)C2)c1C (stereo not shown) [Example 2090, 3,3′-((((2,2′-dimethyl-[1,1′-biphenyl]-3,3′-diyl)bis(oxy))bis(propane-3,1-diyl))bis(methylazanediyl))bis(cyclobutan-1-ol)]	20.1 to 90	–
Cc1c(OCCCN[C@@H](c2ccccc2)[C@H](O)CO)cccc1-c1cccc(OCCCN2CC[C@@H](O)C2)c1C [Example 2091, (2S,3S)-3-((3-((3′-(3-((R)-3-hydroxypyrrolidin-1-yl)propoxy)-2,2′-dimethyl-[1,1′-biphenyl]-3-yl)oxy)propyl)amino)-3-phenylpropane-1,2-diol]	20.1 to 90	–
Cc1c(OCCCN2CC[C@@H](O)C2)cccc1-c1cccc(OCCCN2CCO[C@@H](CO)C2)c1C [Example 2092, (R)-1-(3-((3′-(3-((R)-2-(hydroxymethyl)morpholino)propoxy)-2,2′-dimethyl-[1,1′-biphenyl]-3-yl)oxy)propyl)pyrrolidin-3-ol]	20.1 to 90	–
Cc1c(OCCCN(C)CCCN(C)CCCOc2cccc(-c3cccc(OCCCN4CC[C@@H](O)C4)c3C)c2C)cccc1-c1cccc(OCCCN2CC[C@@H](O)C2)c1C [Example 2093, (3R,3′R)-1,1′-((((((propane-1,3-diylbis(methylazanediyl))bis(propane-3,1-diyl))bis(oxy))bis(2,2′-dimethyl-[1,1′-biphenyl]-3′,3-diyl))bis(oxy))bis(propane-3,1-diyl))bis(pyrrolidin-3-ol)]	20.1 to 90	–
Cc1c(OCCCN(C)CCOCCN(C)CCCOc2cccc(-c3cccc(OCCCN4CC[C@@H](O)C4)c3C)c2C)cccc1-c1cccc(OCCCN2CC[C@@H](O)C2)c1C [Example 2095, (3R,3′R)-1,1′-(((((((oxybis(ethane-2,1-diyl))bis(methylazanediyl))bis(propane-3,1-diyl))bis(oxy))bis(2,2′-dimethyl-[1,1′-biphenyl]-3′,3-diyl))bis(oxy))bis(propane-3,1-diyl))bis(pyrrolidin-3-ol)]	20.1 to 90	–
CNCCOCCN(C)CCCOc1cccc(-c2cccc(OCCCN3CC[C@@H](O)C3)c2C)c1C [Example 2096, (R)-1-(3-((2,2′-dimethyl-3′-(3-(methyl(2-(2-(methylamino)ethoxy)ethyl)amino)propoxy)-[1,1′-biphenyl]-3-yl)oxy)propyl)pyrrolidin-3-ol]	20.1 to 90	–
Cc1c(OCCCN[C@H](CO)[C@H](O)c2ccccc2)cccc1-c1cccc(OCCCN[C@H](CO)[C@H](O)c2ccccc2)c1C [Example 2097]	90.1 to 1000	–
Cc1c(OCCCN(Cc2cncc(C#N)c2)C[C@H](O)CO)cccc1-c1cccc(OCCCN(Cc2cncc(C#N)c2)C[C@H](O)CO)c1C [Example 2099, 5,5′-(((((2,2′-dimethyl-[1,1′-biphenyl]-3,3′-diyl)bis(oxy))bis(propane-3,1-diyl))bis(((S)-2,3-dihydroxypropyl)azanediyl))bis(methylene))dinicotinonitrile]	–	1250

Now from value to compound:

IC50 (IC50 range class) [nM]	IC50 (numeric IC50) [nM]	SMILES
20.1 to 90	–	Cc1c(OCCCN(CCO)CCC(C)C)cccc1-c1cccc(OCCCN2CC[C@@H](O)C2)c1C [Example 2073, (R)-1-(3-((3′-(3-((2-hydroxyethyl)(isopentyl)amino)propoxy)-2,2′-dimethyl-[1,1′-biphenyl]-3-yl)oxy)propyl)pyrrolidin-3-ol]
20.1 to 90	–	Cc1c(OCCCNC[C@@H](O)c2ccc(F)c(Cl)c2)cccc1-c1cccc(OCCCN2CC[C@@H](O)C2)c1C [Example 2075, (R)-1-(3-((3′-(3-(((S)-2-(3-chloro-4-fluorophenyl)-2-hydroxyethyl)amino)propoxy)-2,2′-dimethyl-[1,1′-biphenyl]-3-yl)oxy)propyl)pyrrolidin-3-ol]
20.1 to 90	–	Cc1c(OCCCN(C)CCC(N)=O)cccc1-c1cccc(OCCCN(C)CCC(N)=O)c1C [Example 2076]
20.1 to 90	–	Cc1c(OCCCN(CCO)CCO)cccc1-c1cccc(OCCCN(CCO)CCO)c1C [Example 2077, 2,2′,2″,2′″-((((2,2′-dimethyl-[1,1′-biphenyl]-3,3′-diyl)bis(oxy))bis(propane-3,1-diyl))bis(azanetriyl))tetrakis(ethan-1-ol)]
0.04 to 20	–	Cc1c(OCCCNC[C@H](O)CO)cccc1-c1cccc(OCCCNC[C@H](O)CO)c1C [Example 2079, (2S,2′S)-3,3′-((((2,2′-dimethyl-[1,1′-biphenyl]-3,3′-diyl)bis(oxy))bis(propane-3,1-diyl))bis(azanediyl))bis(propane-1,2-diol)]
0.04 to 20	–	Cc1c(OCCCNCCCO)cccc1-c1cccc(OCCCNC[C@H](O)CO)c1C [Example 2080, (S)-3-((3-((3′-(3-((3-hydroxypropyl)amino)propoxy)-2,2′-dimethyl-[1,1′-biphenyl]-3-yl)oxy)propyl)amino)propane-1,2-diol]
20.1 to 90	–	Cc1c(OCCCNC[C@H](O)CO)cccc1-c1cccc(OCCCN2CCC[C@H](C(=O)O)C2)c1C [Example 2081, (S)-1-(3-((3′-(3-(((S)-2,3-dihydroxypropyl)amino)propoxy)-2,2′-dimethyl-[1,1′-biphenyl]-3-yl)oxy)propyl)piperidine-3-carboxylic acid]
20.1 to 90	–	Cc1c(OCCCN2CC[C@H](O)[C@@H](O)C2)cccc1-c1cccc(OCCCN2CC[C@H](O)[C@@H](O)C2)c1C [Example 2084, (3S,3′S,4S,4′S)-1,1′-(((2,2′-dimethyl-[1,1′-biphenyl]-3,3′-diyl)bis(oxy))bis(propane-3,1-diyl))bis(piperidine-3,4-diol)]
0.04 to 20	–	Cc1c(OCCCNCCc2cccnc2)cccc1-c1cccc(OCCCNCCc2cccnc2)c1C [Example 2086, 3,3′-((2,2′-dimethyl-[1,1′-biphenyl]-3,3′-diyl)bis(oxy))bis(N-(2-(pyridin-3-yl)ethyl)propan-1-amine)]
0.04 to 20	–	Cc1c(OCCCN[C@@H]2C[C@H](CO)[C@@H](O)[C@H]2O)cccc1-c1cccc(OCCCN[C@@H]2C[C@H](CO)[C@@H](O)[C@H]2O)c1C [Example 2088, (1S,1′S,2R,2′R,3R,3′R,5R,5′R)-5,5′-((((2,2′-dimethyl-[1,1′-biphenyl]-3,3′-diyl)bis(oxy))bis(propane-3,1-diyl))bis(azanediyl))bis(3-(hydroxymethyl)cyclopentane-1,2-diol)]
0.04 to 20	–	COCC(O)CNCCCOc1cccc(-c2cccc(OCCCNCC(O)COC)c2C)c1C (stereo not shown) [Example 2094, 3,3′-((((2,2′-dimethyl-[1,1′-biphenyl]-3,3′-diyl)bis(oxy))bis(propane-3,1-diyl))bis(azanediyl))bis(1-methoxypropan-2-ol)]
0.04 to 20	–	Cc1c(OCCCNC[C@H](O)CO)cccc1-c1cccc(OCCCN[C@H](CO)[C@H](O)c2ccccc2)c1C [Example 2098, (S)-3-((3-((3′-(3-(((1R,2R)-1,3-dihydroxy-1-phenylpropan-2-yl)amino)propoxy)-2,2′-dimethyl-[1,1′-biphenyl]-3-yl)oxy)propyl)amino)propane-1,2-diol]

Reference: patent US10144706B2 (BRISTOL-MYERS SQUIBB COMPANY, priority 2016, dated 2018)
